The text below walks through data of US7064124B2, “NF-κB inhibitor containing substituted benzoic acid derivative as active ingredient” (Daiichi Suntory Pharma Co., Ltd., priority 2001, dated 2006).

One data set concerns NF-κB. Description: NF-κB luciferase reporter assay in A549/NF-κBLuc cells stimulated with IL-1β. The class given is cell-based, human. As to conditions: Homo sapiens, A549, A549/NF-κBLuc cells; compound added 1 hour before IL-1β, then 3 hours incubation; luciferase activity; read-out: NF-κB Inhibitory Activity (IC50). In short, it runs like this:
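A549 cells stably carrying an NF-κB-driven luciferase reporter (pNFκB-Luc, G418-selected) pre-treated with compound for 1 h, then stimulated with IL-1β and incubated a further 3 h. Luciferase signal used to derive IC50 for NF-κB inhibition.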
In general terms: A reporter such as luciferase makes a cellular process visible.

Data set [1] deals with GalN/LPS-stimulated C3H/HeN female mice. Kind of data set: In vivo sepsis model (GalN/LPS), compound given intraperitoneally. Also noted: species or system mouse. As to conditions: i.p. 10, 30 or 100 mg/kg immediately after GalN/LPS, vs vehicle group. The procedure:
A mixed solution of N-acetyl galactosamine (GalN, 20 mg, Sigma) and lipopolysaccharide (LPS, 5 μg, Sigma) was intraperitoneally administered as a stimulant to a 7-week-old C3H/HeN female mice and immediately thereafter, the compound of Example 112 suspended in a vehicle (0.5% hydroxypropyl cellulose (HPC), produced by Nippon Soda Co., Ltd.) was intraperitoneally administered to give a dose of 10 mg/kg, 30 mg/kg or 100 mg/kg. The TNF-α mRNA levels and the IL-1β mRNA levels in liver 60 minutes after the administration of stimulant each was measured by the real-time PCR method, and the TNF-α levels in plasma after 90 minutes were measured using the mouse TNF-α ELISA kit (Biosource). In the real-time PCR using PRISM7700 (PE Biosystems Japan) according to the protocol of PCR quantitative System (PE Biosystems Japan), mRNA was extracted from the liver and the TNF-α and IL-1β were detected with cDNA obtained by SuperScript Preamplification System (Lifetech Orient) as a template. For the detection, the following primers and TaqMan probes were used.
The RNA level in each sample was corrected by the expression level of glyceraldehyde 3-phosphate dehydrogenase (GAPDH) gene.
ELISA was performed according to the manual included in the kit. The comparison with the vehicle group was performed by the Dunnett's Multiple Comparison test using Stat-View (SAS Institute).

The test system is the same in data set [2]. Kind of data set: Sepsis model (GalN/LPS), compound given orally. It counts as in vivo, mouse. As to conditions: oral 10, 30 or 100 mg/kg 10 min before GalN/LPS, vs vehicle group; for TNF-α mRNA levels in liver: liver 60 min after stimulant, real-time PCR; for TNF-α levels in plasma: plasma 90 min after stimulant, ELISA. The method, then: Similarly to Experiment 2, a mixed solution of GalN (20 mg) and LPS (2 μg) was intraperitoneally administered as a stimulant to a 7-week-old C3H/HeN female mice. Ten minutes before that, the compound of Example 112 or the compound of Example 157 each suspended in a vehicle (0.5% HPC) was orally administered to give a dose of 10 mg/kg, 30 mg/kg or 100 mg/kg. The TNF-α mRNA levels in liver 60 minutes after the administration of stimulant were measured by the real-time PCR method, and the TNF-α levels in plasma after 90 minutes were measured using the mouse TNF-α ELISA kit. The comparison with the vehicle group was performed by the Dunnett's Multiple Comparison test using Stat-View.
On the technique in general: Real-time PCR tracks product formation cycle by cycle.

The subject of data set [3] is carrageenin-induced foot edema in Wister male rat. Kind of data set: Acute inflammation model: carrageenin foot edema, compound given orally. The class given is in vivo. As to conditions: oral 100 mg/kg immediately after carrageenin; foot volume 2 hours after carrageenin; vs vehicle group. The procedure: The foot edma ratio was calculated according to the formula: (volume of foot after administration of carrageenin−volume of foot before administration)/volume of foot before administration×100, and shown by the average of foot edma ratio +/−SE.
On the footpad of the right hind leg of a 5-week-old Wister male rat, 0.1 ml of 1 w/v % λ-carrageenin (Sigma) was subcutaneously administered. Immediately thereafter, the compound of Example 112 or the compound of Example 157 each suspended in a vehicle (0.5% HPC) was orally administered to give a dose of 100 mg/kg. As a positive control, indomethacin (sigma) was orally administered to give a dose of 10 mg/kg. The foot edema ratio was calculated according to the formula: (volume of foot 2 hours after administration of carrageenin−volume of foot before administration)/volume of foot before administration×100, using a volume meter (TK-101, manufactured by Unicom). For the comparison between the vehicle group and the drug administered group, a variance test was performed by the F-test and thereafter, Student's t test was performed when the variance was equal, or Aspin-Welch's t test was performed when the variance was not equal.
For orientation: Carrageenan injected into the paw causes an acute inflammation.

Setting [4] is: liver 60 min after stimulant, real-time PCR.

The term IC50 denotes the midpoint of a concentration-inhibition curve. For `COC1=C(OC)C(=O)C(Cc2ccc(OC(C)=O)c(C(=O)Nc3ccc(C(F)(F)F)cc3)c2)=C(C)C1=O` [Example 112, N-[5-(5,6-Dimethoxy-3-methyl-1,4-benzoquinon-2-yl)methyl-2-acetoxybenzoyl]-4-trifluoromethylaniline], the IC50 in the data set with NF-κB was found to be 14 µM. Besides, the “IL-1β mRNA levels in liver” value in data set [1] (setting [4]) is on record as “suppressed”. The “TNF-α mRNA levels in liver” value in data set [1] (setting [4]) and in data set [2] was “suppressed dose dependently” in each case. For the same compound, the “TNF-α levels in plasma” value in data set [1] (plasma 90 min after stimulant, ELISA) is “suppressed dose dependently”; in data set [2], “suppressed dose dependently”. Further, the “acute inflammation (foot edema) caused by carrageenin” value in data set [3] was “significantly suppressed”.

In general, melting point refers to the temperature, or range, at which the solid turns liquid. As for `COC1=C(OC)C(=O)C(Cc2ccc(O)c(C(=O)Nc3ccncc3)c2)=C(C)C1=O` [Example 157, N-(Pyridin-4-yl)-5-(5,6-dimethoxy-3-methyl-1,4-benzoquinon-2-yl)methyl-2-hydroxybenzamide], the melting point fell in the range of 171 to 172.5 °C. The IC50 in the data set on NF-κB worked out at 7 µg/mL. Further, in data set [2], the “TNF-α mRNA levels in liver” value was “suppressed dose dependently” and the “TNF-α levels in plasma” value was “suppressed dose dependently”. In addition, the “acute inflammation (foot edema) caused by carrageenin” value in data set [3] is “significantly suppressed”.

With `COC1=C(OC)C(=O)C(Cc2ccc(O)c(C(=O)Nc3ccncc3)c2)=C(C)C1=O.CS(=O)(=O)O` [Example 203, N-(Pyridin-4-yl)-5-(5,6-dimethoxy-3-methyl-1,4-benzoquinon-2-yl)methyl-2-hydroxybenzamide (methanesulfonate)], the melting point is 199.5 to 201.5 °C. In addition, the IC50 in the data set on NF-κB amounted to 30 µg/mL.

Compound `COC1=C(OC)C(=O)C(Cc2ccc(O)c(C(=O)Nc3ccc(N)cc3)c2)=C(C)C1=O.Cl` [Example 205, N-[5-(5,6-Dimethoxy-3-methyl-1,4-benzoquinon-2-yl)methyl-2-hydroxybenzoyl]-p-phenylenediamine (hydrochloride)] registered a melting point of 162 to 164 °C. The IC50 with NF-κB stood at 50 µg/mL.

Regarding `COC1=C(OC)C(=O)C(Cc2cccc(C(=O)Nc3cccnc3)c2O)=C(C)C1=O` [Example 207, N-(Pyridin-3-yl)-3-(5,6-dimethoxy-3-methyl-1,4-benzoquinon-2-yl)methyl-2-hydroxybenzamide], the melting point lay in the range of 169 to 171 °C. The IC50 in the data set with NF-κB was determined as 98 µg/mL.

For the compound `COC1=C(OC)C(=O)C(Cc2ccc(OC(C)=O)c(C(=O)Nc3ccc(-n4ccnc4)cc3)c2)=C(C)C1=O` [Example 208, N-[5-(5,6-Dimethoxy-3-methyl-1,4-benzoquinon-2-yl)methyl-2-acetoxybenzoyl]-4-(imidazol-1-yl)aniline], the melting point was 116.5 to 118.5 °C. Moreover, the half-inhibitory concentration (IC50) in the data set with NF-κB was determined as 19 µg/mL.

The compound `COC1=C(OC)C(=O)C(Cc2ccc(O)c(C(=O)Nc3ccc(C(=O)OC(C)(C)C)cc3)c2)=C(C)C1=O` [Example 214, tert-Butyl N-[5-(5,6-dimethoxy-3-methyl-1,4-benzoquinon-2-yl)methyl-2-hydroxybenzoyl]-4-aminobenzoate] had a melting point of 200.5 to 202 °C. In addition, the IC50 in the data set with NF-κB was found to be 10 µg/mL.

For `COC1=C(OC)C(=O)C(Cc2ccc(O)c(C(=O)Nc3cccnc3OC)c2)=C(C)C1=O` [Example 216, N-(2-Methoxypyridin-3-yl)-5-(5,6-dimethoxy-3-methyl-1,4-benzoquinon-2-yl)methyl-2-hydroxybenzamide], the melting point was in the range of 112 to 114 °C. Further, in the data set with NF-κB, the IC50 was 10 µg/mL.

As for `COC1=C(OC)C(=O)C(Cc2ccc(O)c(C(=O)Nc3cc(OC)ccc3OC)c2)=C(C)C1=O` [Example 220, N-[5-(5,6-Dimethoxy-3-methyl-1,4-benzoquinon-2-yl)methyl-2-hydroxybenzoyl]-2,5-dimethoxyaniline], the melting point lay within 130 to 132 °C. The IC50 with NF-κB came out at 66 µg/mL.

Regarding `COC1=C(OC)C(=O)C(Cc2ccc(OC)c(C(=O)Nc3cccnc3Cl)c2)=C(C)C1=O` [Example 221, N-(2-Chloropyridin-3-yl)-5-(5,6-dimethoxy-3-methyl-1,4-benzoquinon-2-yl)methyl-2-methoxybenzamide], the melting point was in the range of 178 to 180 °C. For the same compound, the IC50 in the data set with NF-κB is 46 µg/mL.

Compound `COC1=C(OC)C(=O)C(Cc2ccc(O)c(C(=O)Nc3cccnc3N3CCOCC3)c2)=C(C)C1=O` [Example 223, N-(2-Morpholinopyridin-3-yl)-5-(5,6-dimethoxy-3-methyl-1,4-benzoquinon-2-yl)methyl-2-hydroxybenzamide] displayed a melting point of 210 to 212.5 °C. Also, the IC50 in the data set on NF-κB was found to be 81 µg/mL.

Regarding `COC1=C(OC)C(=O)C(Cc2ccc(O)c(C(=O)Nc3ccc(N4CCOCC4)nc3)c2)=C(C)C1=O` [Example 225, N-(6-Morpholinopyridin-3-yl)-5-(5,6-dimethoxy-3-methyl-1,4-benzoquinon-2-yl)methyl-2-hydroxybenzamide], the melting point was 102.5 to 105 °C. The IC50 in the data set with NF-κB amounted to 24 µg/mL.

With `COC1=C(OC)C(=O)C(Cc2ccc(O)c(C(=O)Nc3ccnc(Cl)c3)c2)=C(C)C1=O` [Example 227, N-(2-Chloropyridin-4-yl)-5-(5,6-dimethoxy-3-methyl-1,4-benzoquinon-2-yl)methyl-2-hydroxybenzamide], the melting point lay within 142 to 144 °C. For the same compound, the IC50 in the data set on NF-κB is 20 µg/mL.

Turning to `COC1=C(OC)C(=O)C(Cc2ccc(OC(C)=O)c(C(=O)Nc3cc(OC)ncn3)c2)=C(C)C1=O` [Example 228, N-(6-Methoxypyrimidin-4-yl)-5-(5,6-dimethoxy-3-methyl-1,4-benzoquinon-2-yl)methyl-2-acetoxybenzamide], the melting point was 138.5 to 141 °C. Moreover, the IC50 with NF-κB came out at 64 µg/mL.

For the compound `COC1=C(OC)C(=O)C(Cc2ccc(O)c(C(=O)Nc3cc(OC)ncn3)c2)=C(C)C1=O` [Example 229, N-(6-Methoxypyrimidin-4-yl)-5-(5,6-dimethoxy-3-methyl-1,4-benzoquinon-2-yl)methyl-2-hydroxybenzamide], the melting point lay within 209.5 to 211.5 °C. Also, the IC50 in the data set on NF-κB came to 59 µg/mL.

With `CC1=C(C)C(=O)C(Cc2ccc(O)c(C(=O)Nc3ccc(C(F)(F)F)cc3)c2)=C(C)C1=O` [Example 235, N-[5-(3,5,6-Trimethyl-1,4-benzoquinon-2-yl)methyl-2-hydroxybenzoyl]-4-trifluoromethylaniline], the melting point was 233 to 235 °C. The IC50 in the data set with NF-κB amounted to 5 µg/mL.

For the compound `CC1=C(C)C(=O)C(Cc2ccc(O)c(C(=O)Nc3cccnc3Cl)c2)=C(C)C1=O` [Example 237], the melting point was 199 to 201 °C. The IC50 in the data set on NF-κB worked out at 5 µg/mL.
